Experimental data as given in patent publication US7642350B2, “Purine derivatives” (Pfizer Limited, priority 2005, dated 2010).
Like-named read-outs stand apart in the source and are kept apart here.

How the values were obtained:
TLR7 receptor [1] = target: T1, TLR7 receptor (Homo sapiens, UniProt Q9NYK1); test: cell-based; details: for inhibition at 10 µM: read-out: inhibition at 10 μM
T1 sequence (Q9NYK1 27-1049): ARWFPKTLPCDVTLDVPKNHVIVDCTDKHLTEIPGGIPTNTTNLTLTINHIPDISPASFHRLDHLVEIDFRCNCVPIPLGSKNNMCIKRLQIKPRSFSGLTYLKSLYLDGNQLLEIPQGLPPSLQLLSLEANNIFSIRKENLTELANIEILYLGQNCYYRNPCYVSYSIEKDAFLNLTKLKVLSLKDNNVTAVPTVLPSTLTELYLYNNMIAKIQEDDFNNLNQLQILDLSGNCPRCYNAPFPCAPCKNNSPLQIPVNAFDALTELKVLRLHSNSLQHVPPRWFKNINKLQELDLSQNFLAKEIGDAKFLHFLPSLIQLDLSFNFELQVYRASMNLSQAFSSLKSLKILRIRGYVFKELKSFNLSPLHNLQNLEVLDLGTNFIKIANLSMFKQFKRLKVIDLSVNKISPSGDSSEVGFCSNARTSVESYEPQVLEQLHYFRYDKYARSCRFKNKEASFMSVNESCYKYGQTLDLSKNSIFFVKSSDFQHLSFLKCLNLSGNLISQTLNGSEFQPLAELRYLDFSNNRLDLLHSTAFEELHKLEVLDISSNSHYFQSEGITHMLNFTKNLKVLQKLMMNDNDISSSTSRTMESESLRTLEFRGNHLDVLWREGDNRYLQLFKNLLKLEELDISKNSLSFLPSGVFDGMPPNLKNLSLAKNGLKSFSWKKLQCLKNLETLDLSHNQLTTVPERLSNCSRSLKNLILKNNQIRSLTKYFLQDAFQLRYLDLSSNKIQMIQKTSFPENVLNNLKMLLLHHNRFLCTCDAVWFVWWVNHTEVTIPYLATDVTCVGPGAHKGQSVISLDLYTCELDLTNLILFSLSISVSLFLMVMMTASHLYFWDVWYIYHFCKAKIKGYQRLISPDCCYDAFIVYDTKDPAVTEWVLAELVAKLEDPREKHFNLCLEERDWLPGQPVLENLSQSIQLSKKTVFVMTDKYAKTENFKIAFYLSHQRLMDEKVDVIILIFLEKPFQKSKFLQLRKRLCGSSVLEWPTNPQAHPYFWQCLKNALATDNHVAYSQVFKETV
Experimental: (§1) PBL contain as a subpopulation plasmacytoid dendritic cells which are the natural interferon producing cells during an infection and as such are an excellent model in which to profile interferon inducers. As an extremely sensitive antiviral bioassay, supernatant taken from PBL is assayed for antiviral activity in the HCV replicon system.
(§2) The HCV replicon (Huh-5-2[I389luc-ubi-neo-NS3-3′/ET]) is an in vitro model of HCV replication in which the luciferase reporter is incorporated into HCV sequences and stably maintained in the human hepatoma cell line Huh-7. The firefly luciferase reporter is expressed as a luciferase-ubiquitin-neomycin phosphotransferase fusion protein which is cleaved by host proteases to release luciferase. The replicon also contains an internal EMCV IRES, which drives translation of HCV NS3-5B polyprotein, which harbour cell culture adapted mutations to permit high cloning efficiency. […] Firefly luciferase activity is detected using a Bright-Glo™ Luciferase Assay System manufactured by Promega.
(§3) An initial 3 fold serial dilution series of compounds in 100% DMSO is prepared from stocks. The dilution series is then further diluted 100 fold with complete RPMI—FCS. The final concentration of DMSO in the assay is thus 0.1% and that of the test compound is 1/1000 in the 100% DMSO dilution series.
(§4) PBL are prepared seeded at 5×10^5/well/90 μl into the previously prepared compound containing assay plates (96 well clear bottomed TC grade) and incubated for 24 h.
(§5) LucUbiNeo HCV replicon cells are seeded at 10^4/well/90 μl. These are incubated for 24 h. After 24 h 10 μl of medium is transferred from the PBL assay plates to the HCV replicon plates and incubated for a further 48 h.

TLR7 receptor [2] = target: T1, TLR7 receptor; details: read-out: EC50 (antiviral EC50); concentration of test compound applied to PBL (24 h) giving 50% reduction of HCV replicon levels after transfer of PBL medium to Huh-5-2 luciferase replicon cells (48 h)
Experimental: as §1, §2, §3, §4, §5

| SMILES | inhibition at 10 µM (TLR7 receptor [1]) [%] | EC50 (TLR7 receptor [1]) [nM] | EC50 (TLR7 receptor [2]) [nM] |
| --- | --- | --- | --- |
| Nc1nc(C(=O)NS(=O)(=O)c2ccccc2)nc2c1[nH]c(=O)n2Cc1ccccc1 [Example 222] | > 50 |  |  |
| Nc1nc(C(=O)NCC2CC2)nc2c1[nH]c(=O)n2Cc1ccccc1 [Example 1, 6-Amino-9-benzyl-8-oxo-8,9-dihydro-7H-purine-2-carboxylic acid cyclopropylmethyl-amide] | > 50 | 30 |  |
| CCNC(=O)c1nc(N)c2[nH]c(=O)n(Cc3ccccc3)c2n1 [Example 6] | > 50 | 17 |  |
| NC(=O)c1nc(N)c2[nH]c(=O)n(Cc3ccccc3)c2n1 [Example 11] | > 50 |  |  |
| COCCn1c(=O)[nH]c2c(N)nc(C(=O)N(C)Cc3ccccc3)nc21 [Example 36] | > 50 |  |  |
| COCCNC(=O)c1nc(N)c2[nH]c(=O)n(Cc3ccccc3)c2n1 [Example 2] | > 50 |  | 5 |
| CNC(=O)c1nc(N)c2[nH]c(=O)n(Cc3ccccc3)c2n1 [Example 5] | > 50 | 42 |  |
| COCCn1c(=O)[nH]c2c(N)nc(C(=O)NCc3ccccc3)nc21 [Example 33] | > 50 |  |  |
| CCCCS(=O)(=O)NC(=O)c1nc(N)c2[nH]c(=O)n(Cc3ccccc3)c2n1 [Example 226] | > 50 |  |  |
| Nc1nc(C(=O)N2CCC2)nc2c1[nH]c(=O)n2Cc1ccccc1 [Example 4] | > 50 | 72 |  |
| Cc1ccc(S(=O)(=O)NC(=O)c2nc(N)c3[nH]c(=O)n(Cc4ccccc4)c3n2)cc1 [Example 221, 6-Amino-9-benzyl-N-(toluylsulfonyl)-8-oxo-8,9-dihydro-7H-purine-2-carboxamide] | > 50 |  |  |
| Nc1nc(C(=O)NCc2ccccc2)nc2c1[nH]c(=O)n2Cc1ccccc1 [Example 14] | > 50 |  |  |
